Experimental data from patent US5547684A, “Cosmetic composition containing a DNA-sodium salt and methods of making and using the same” (priority 1993, dated 1996).

Experiments:
HIV-1 (HTLV-IIIB) = assay: Anti-virus activity of AC-series preparations on infected cells (syncitia, p24 antigen); assay type: cell-based
Procedure: Antiviral activity of these preparations toward HIV-1 was studied using as the model, cellular cultures infected with HIV-1.
The testing of anti-virus activity was conducted using two types of interwoven cellar lines sensitive to infecting by AIDS-virus--the MT-4 cells and Yurkat tat III cells. The cells were harvested in suspension form in a PPMI 1640 medium containing 15% of fetal serum with exposure to the atmosphere characterized by 5% CO2 content, 98% humidity level and 37% C. temperature level. The cells were infected by the HTLV-IIIB culture of AIDS-1 virus in accordance with WHO recommendations for conducting scientific researches on testing pharmaceutical preparations. The methods used for determining anti-virus activity of the tested preparations are recommended for similar purposes by the WHO Reference Laboratory (Belgium) headed by Professor de Clerk who is an internationally recognized leading expert in synthesis and screening chemical preparations for AIDs treatment (I. Antimicrob. Chemoter., 1989, No. 23, Suppl. A 35-46). […]
(§1) The cells were incubated for 6 days under similar conditions and thereafter their viability was determined as well as formation of virus-induced syncytia and virus antigen (p24) using immunofermental analysis. […] The viable cells were counted using thripane blue dye-stuff in the Goryayev chamber.

normal cells = details: cited from earlier work
CEM-SS and MT-4 cells = assay: Cytotoxicity of preparations, threpane blue vitality of cells; assay type: cell-based, human; details: Table 1; comparison preparation, no ratio
Procedure: The antiviral activity of the preparation was tested according to the method recommended by WHPO for these purposes. CEM-SS and MT-4 reinoculated human cell lines were used. The cells were cultivated in the concentration of (0.03-0.05)*10^6 cells per 1 ml of RPMI 1640 medium with 10% calf fetal serum, 300 mg/ml of L-glutamine, 100 mcg/ml of gentamicin and grown in the form of a suspension. The vitality of cells was tested by dyeing them with 0.4% solution of threpane blue dye stuff. HIV-IVS and HIV-1 HTLV/IIIB strains were used as the virus sources.

in vivo = details: mouse, in vivo
Procedure: (§2) The studies on toxicity of AC-1 and AC-4 and of aziodothymidine were conducted on non-linear white mice weighing 6 to 7 grams, making use of different concentrations of preparations per kg of weight of the animal in the volume of 0.2 ml in hypodermic, intranasal and intraabdominal injections and 0.03 ml in intracerebral injections. The animals were kept under observation for 2 weeks and then LD50 was calculated using Curber method. The lethal dose of the preparation which has caused death of 50% of the animals was considered an LD50 dose. The preparation was used as a sterile solution was a concentration of 0.05%.
(§3) The animals were kept under observation for 2 weeks and then LD50 was calculated using Curber method. The lethal dose of the preparation which caused death of 50% of the animal was considered the LD50 dose.

white mice = assay: in vivo; details: for surviving mice / infected mice: Table 3
Procedure: as §2, §3

[1] = test system: HIV (HIV-IVS and HIV-1 HTLV/IIIB strains); assay: HIV suppression in vitro (syncitia, viral antigen IFA), CEM-SS and MT-4 cells; assay type: cell-based; details: Table 1; comparison preparation, no ratio
Procedure: Complexes of DNA-Na with zinc, cobalt, nickel and iron were used for HIV suppression in in vitro systems with various concentrations of the components in the complexes. AZT manufactured by "Wellcome" Company was used for comparison purposes. The antiviral activity of the preparation was tested according to the method recommended by WHPO for these purposes. CEM-SS and MT-4 reinoculated human cell lines were used. The cells were cultivated in the concentration of (0.03-0.05)*10^6 cells per 1 ml of RPMI 1640 medium with 10% calf fetal serum, […] of L-glutamine, 100 mcg/ml of gentamicin and grown in the form of a suspension. The vitality of cells was tested by dyeing them with 0.4% solution of threpane blue dye stuff. HIV-IVS and HIV-1 HTLV/IIIB strains were used as the virus sources.
The cell suspension was placed into 24 well panels, processed by various doses of preparations and then infected by HIV. The infection multiplicity was 0.01 TCD50 per cell. After that, the cultures were incubated at 37° C. in a 5% CO2 atmosphere and 98% humidity for 5-7 days up to the moment of defining the cytopathic effect of the virus upon the cell culture.
Immunophermentative analysis was used to define formation of viral antigen.

[2] = test system: MT-4 cells and Yurkat tat III cells; assay: Cell viability / toxic effect on cells, AC-series preparations; assay type: cell-based, human
Procedure: The testing of anti-virus activity was conducted using two types of interwoven cellar lines sensitive to infecting by AIDS-virus--the MT-4 cells and Yurkat tat III cells. The cells were harvested in suspension form in a PPMI 1640 medium containing 15% of fetal serum with exposure to the atmosphere characterized by 5% CO2 content, 98% humidity level and 37% C. temperature level. The cells were infected by the HTLV-IIIB culture of AIDS-1 virus in accordance with WHO recommendations for conducting scientific researches on testing pharmaceutical preparations. The methods used for determining anti-virus activity of the tested preparations are recommended for similar purposes by the WHO Reference Laboratory (Belgium) headed by Professor de Clerk who is an internationally recognized leading expert in synthesis and screening chemical preparations for AIDs treatment (I. Antimicrob. Chemoter., 1989, No. 23, Suppl. A 35-46). The work was done at the Virology Institute of the U.S.S.R. Academy of Medical Sciences on MT-4 human lymphoid cells and on Yurkat tat III cells as indicated above.
as §1

mice = details: 10 mg/kg injected intercerebrally; cited from earlier work

## Cc1cn([C@H]2C[C@H](N=[N+]=[N-])[C@@H](CO)O2)c(=O)[nH]c1=O [AZT, azidothymidine]
HIV-1 (HTLV-IIIB); 1.0 mcm/ml, virus control 2.0 ng/ml
  antigen (p24) content: 1 ng/mL
HIV-1 (HTLV-IIIB); Table 2, virus antigen (p24), 270 mkg/ml, 6th day
  immunofermental activity: 0.1 ng/mL
Normal cells; optimal dose
  normal cells killed: about 30%
Normal cells; read-out: LD50 for cells, cells
  CC50: ≤ 100 mM
CEM-SS and MT-4 cells
  cytotoxicity: quantity of cells in ml of cultural liquid: 0.61 × 10^8
In vivo
  LD50 at 336 h: 10 mg/kg
In vivo; 10 mg/kg
  mortality at 336 h: 50%
White mice; hypoderm., 5 mg/kg
  surviving mice / infected mice: 6/6
White mice; hypoderm., 10 mg/kg
  surviving mice / infected mice: 6/6
White mice; hypoderm., 20 mg/kg
  surviving mice / infected mice: 6/6
White mice; hypoderm., 35 mg/kg
  surviving mice / infected mice: 6/6
White mice; hypoderm., 50 mg/kg
  surviving mice / infected mice: 6/6
White mice; hypoderm., 75 mg/kg
  surviving mice / infected mice: 6/6
White mice; in/abdom., 5 mg/kg
  surviving mice / infected mice: 6/6
White mice; in/abdom., 10 mg/kg
  surviving mice / infected mice: 6/6
White mice; in/abdom., 20 mg/kg
  surviving mice / infected mice: 6/6
White mice; in/abdom., 35 mg/kg
  surviving mice / infected mice: 6/6
White mice; in/abdom., 50 mg/kg
  surviving mice / infected mice: 6/6
White mice; in/abdom., 75 mg/kg
  surviving mice / infected mice: 6/6
White mice; in/cerebr., 5 mg/kg
  surviving mice / infected mice: 6/6
White mice; in/cerebr., 10 mg/kg
  surviving mice / infected mice: 6/6
White mice; in/cerebr., 20 mg/kg
  surviving mice / infected mice: 6/6
White mice; in/cerebr., 35 mg/kg
  surviving mice / infected mice: 6/6
White mice; in/cerebr., 50 mg/kg
  surviving mice / infected mice: 6/6
White mice; in/cerebr., 75 mg/kg
  surviving mice / infected mice: 6/6
White mice; in/nasal, 5 mg/kg
  surviving mice / infected mice: 6/6
White mice; in/nasal, 10 mg/kg
  surviving mice / infected mice: 6/6
White mice; in/nasal, 20 mg/kg
  surviving mice / infected mice: 6/6
White mice; in/nasal, 35 mg/kg
  surviving mice / infected mice: 6/6
White mice; in/nasal, 50 mg/kg
  surviving mice / infected mice: 6/6
White mice; in/nasal, 75 mg/kg
  surviving mice / infected mice: 6/6
White mice; all injection methods, 5 to 50 mg/kg, except intracerebral 10 to 50 mg/kg
  toxicity: non-toxic
[1]
  IFA optical density: 0.091
  IFA viral antigen: 0.1 ng/mL
  quantity of syncitia, % from the control virus: 8%
[2]; Homo sapiens, MT4, 144 h
  viability at 270 µg/mL: 96%
[2]; all the above biologically active concentrations
  toxicity on the cell level: nontoxic
mice
  death of animals: 50%
